Results on four compounds are retold here after ChEMBL document CHEMBL1144959, “Nonpeptide RGD antagonists: a novel class of mimetics, the 5,8-disubstituted 1-azabicyclo[5.2.0]nonan-2-one lactam” (Bioorg Med Chem Lett, 2003).

pIC50: −log10 of the molar value.

The assay deals with Integrin alpha-5/beta-1 (Homo sapiens, UniProt P05556+P08648). The assay is described as follows: Inhibition of fibronectin (GST-3Fn8-11) binding to recombinant soluble mini integrin alpha5-beta1. The format is protein-complex assay.
Chain of Integrin alpha-5/beta-1 (P05556 21-798 limits assumed): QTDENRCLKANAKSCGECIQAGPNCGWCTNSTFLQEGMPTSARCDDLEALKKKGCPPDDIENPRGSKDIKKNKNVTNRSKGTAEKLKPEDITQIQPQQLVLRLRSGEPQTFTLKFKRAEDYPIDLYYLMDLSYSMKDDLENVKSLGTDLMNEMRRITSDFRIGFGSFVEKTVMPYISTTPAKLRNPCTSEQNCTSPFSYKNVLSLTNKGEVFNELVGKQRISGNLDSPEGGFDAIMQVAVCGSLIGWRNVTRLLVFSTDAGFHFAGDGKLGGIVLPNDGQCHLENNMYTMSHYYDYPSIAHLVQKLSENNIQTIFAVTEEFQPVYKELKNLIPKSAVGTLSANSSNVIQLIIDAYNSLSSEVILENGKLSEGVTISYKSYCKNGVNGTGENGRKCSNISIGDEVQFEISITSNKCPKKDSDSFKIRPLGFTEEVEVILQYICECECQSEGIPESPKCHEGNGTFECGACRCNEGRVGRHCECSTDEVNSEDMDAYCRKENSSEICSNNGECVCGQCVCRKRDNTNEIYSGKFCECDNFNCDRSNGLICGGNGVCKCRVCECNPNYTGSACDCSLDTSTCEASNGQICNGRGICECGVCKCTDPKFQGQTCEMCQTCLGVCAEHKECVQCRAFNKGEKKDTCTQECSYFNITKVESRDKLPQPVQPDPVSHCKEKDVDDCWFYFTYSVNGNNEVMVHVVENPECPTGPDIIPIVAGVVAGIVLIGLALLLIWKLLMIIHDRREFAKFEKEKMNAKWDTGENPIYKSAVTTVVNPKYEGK
Chain of Integrin alpha-5/beta-1 (P08648 42-894 limits assumed): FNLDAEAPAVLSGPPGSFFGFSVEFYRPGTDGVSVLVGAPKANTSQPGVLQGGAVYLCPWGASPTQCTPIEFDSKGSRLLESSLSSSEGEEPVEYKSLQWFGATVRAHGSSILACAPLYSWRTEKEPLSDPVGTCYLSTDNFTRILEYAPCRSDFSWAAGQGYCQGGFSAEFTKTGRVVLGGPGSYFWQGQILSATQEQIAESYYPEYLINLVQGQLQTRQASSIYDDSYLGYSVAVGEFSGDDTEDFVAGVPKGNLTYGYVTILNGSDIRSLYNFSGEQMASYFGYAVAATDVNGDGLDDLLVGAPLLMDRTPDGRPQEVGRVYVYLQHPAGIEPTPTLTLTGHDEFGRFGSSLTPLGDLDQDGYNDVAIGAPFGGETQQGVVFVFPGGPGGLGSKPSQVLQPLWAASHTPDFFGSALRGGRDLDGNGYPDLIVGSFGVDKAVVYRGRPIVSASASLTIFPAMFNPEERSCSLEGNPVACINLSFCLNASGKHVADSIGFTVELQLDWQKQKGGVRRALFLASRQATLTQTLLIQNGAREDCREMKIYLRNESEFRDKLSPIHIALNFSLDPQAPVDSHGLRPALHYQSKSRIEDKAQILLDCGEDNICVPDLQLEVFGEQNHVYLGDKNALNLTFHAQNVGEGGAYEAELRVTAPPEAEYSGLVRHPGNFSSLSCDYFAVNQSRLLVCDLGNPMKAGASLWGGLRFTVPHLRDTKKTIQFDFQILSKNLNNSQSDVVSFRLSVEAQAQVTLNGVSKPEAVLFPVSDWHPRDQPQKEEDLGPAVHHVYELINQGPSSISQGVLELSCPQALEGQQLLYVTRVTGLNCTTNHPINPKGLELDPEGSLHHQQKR
Chain of Integrin alpha-5/beta-1 (P08648 895-1049 limits assumed): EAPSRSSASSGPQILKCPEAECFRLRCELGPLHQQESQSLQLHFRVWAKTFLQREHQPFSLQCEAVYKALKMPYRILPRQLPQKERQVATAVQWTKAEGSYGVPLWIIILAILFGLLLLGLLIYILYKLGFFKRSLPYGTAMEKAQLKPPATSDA

One may read the pIC50 as the IC50 on a negative log10 scale, so that one unit is a factor of ten. Take `N=C(N)NCCCNC(=O)C1CCC(=O)N2CC(CCC(=O)O)C2C1` (centres undefined): the pIC50 was 2.89. With `N=C(N)NCCCNC(=O)[C@H]1CCC(=O)N2C[C@H](CCC(=O)O)[C@H]2C1`, the pIC50 is 4.19.

`NC(N)=NCCC[C@H](N)C(=O)NCC(=O)N[C@@H](CC(=O)O)C(=O)N[C@@H](CO)C(=O)O`: the pIC50 is 5.66. Turning to `N=C(N)NCCCNC(=O)[C@@H]1CCC(=O)N2C[C@H](CCC(=O)O)[C@H]2C1`, the negative logarithm of the IC50 (pIC50) is 2.51.
